According to US20180168208A1 (priority 2014, published 2018):
“And” between values parts separate entries of the source, which are not always exact repeats. Equal entries are not always repeated. Structures can show the parent of a compound that is named as a salt. Where two headings read alike, the source gives them in different places.

How the values were obtained:
[1] = target: T1, T1R1/T1R3 receptor (Felis catus, UniProt E3UMS2); assay: Example 6: activation of T1R1/T1R3 by transmembrane compounds, conducted as in Example 5; format: cell-based
Description: HEK293 cells that stably express T1R3 and inducibly express T1R1 were exposed to transmembrane compounds alone or in combination with one or more amino acids and/or one or more nucleotides to activate the umami receptor. Activation of the T1R1/T1R3 receptor was detected by a change in intracellular calcium levels using a calcium sensitive fluorescent dye. Cells that express T1R3 but not T1R1 were used as a control. A FLIPR® Tetra or a FlexStation® 3 was used for data capture.
In each experiment, serial dilutions of up to 10 mM of the transmembrane compound were added to the T1R1/T1R3-expressing cells.

[2] = target: T1, T1R1/T1R3 receptor; assay: cell-based; details: for Max resp % of Ala, +IMP (0.2 mM): relative to alanine; for Thres (mM), +IMP (0.2 mM): threshold concentration in the presence of 0.2 mM IMP
In short: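 HEK293 cells stably expressing T1R3 with inducible T1R1 were given transmembrane compounds in serial dilutions up to 10 mM, alone or with amino acids and/or nucleotides. Receptor activation was read as an intracellular calcium change with a calcium-sensitive fluorescent dye; T1R3-only cells served as control.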

[3] = target: T2, cat T1R1/T1R3 receptor (Felis catus, UniProt A0ABI7Z2I4); assay: cell-based
T2 sequence (A0ABI7Z2I4 171-420): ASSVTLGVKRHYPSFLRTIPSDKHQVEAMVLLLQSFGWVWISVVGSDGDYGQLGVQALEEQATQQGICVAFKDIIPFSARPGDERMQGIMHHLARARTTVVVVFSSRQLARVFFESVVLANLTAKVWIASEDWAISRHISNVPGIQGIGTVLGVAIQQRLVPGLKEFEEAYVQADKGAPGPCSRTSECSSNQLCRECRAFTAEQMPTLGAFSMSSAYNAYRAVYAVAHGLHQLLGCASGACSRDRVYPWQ
T2 sequence (Q49KI5 25-865 E206Q/N523D/F654L partner): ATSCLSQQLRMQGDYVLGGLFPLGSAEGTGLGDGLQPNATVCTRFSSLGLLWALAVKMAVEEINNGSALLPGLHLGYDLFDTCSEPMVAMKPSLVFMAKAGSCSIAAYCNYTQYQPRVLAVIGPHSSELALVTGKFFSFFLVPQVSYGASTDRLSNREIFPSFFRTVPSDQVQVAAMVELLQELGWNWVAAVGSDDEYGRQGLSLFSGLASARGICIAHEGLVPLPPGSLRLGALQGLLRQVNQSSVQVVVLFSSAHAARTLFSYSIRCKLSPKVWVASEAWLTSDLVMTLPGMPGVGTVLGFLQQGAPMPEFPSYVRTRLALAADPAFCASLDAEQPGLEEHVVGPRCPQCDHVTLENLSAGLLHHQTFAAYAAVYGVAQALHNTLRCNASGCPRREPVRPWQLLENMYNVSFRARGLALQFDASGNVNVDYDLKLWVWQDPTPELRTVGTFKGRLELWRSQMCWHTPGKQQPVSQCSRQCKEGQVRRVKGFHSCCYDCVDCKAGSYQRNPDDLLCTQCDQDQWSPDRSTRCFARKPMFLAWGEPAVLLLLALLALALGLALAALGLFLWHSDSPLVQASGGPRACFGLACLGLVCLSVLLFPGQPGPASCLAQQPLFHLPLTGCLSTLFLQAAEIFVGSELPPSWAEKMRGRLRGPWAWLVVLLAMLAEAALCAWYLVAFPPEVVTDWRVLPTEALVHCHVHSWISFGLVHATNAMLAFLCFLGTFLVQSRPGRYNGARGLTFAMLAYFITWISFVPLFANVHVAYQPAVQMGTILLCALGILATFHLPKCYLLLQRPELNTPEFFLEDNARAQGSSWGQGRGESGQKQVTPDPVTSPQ
In short: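 HEK293 cells stably expressing T1R3 with inducible T1R1, treated with nucleotide derivatives alone or combined with amino acids and/or nucleotides. Activation read as intracellular calcium change by calcium-sensitive fluorescent dye and/or luminescent reporter. Cells expressing T1R3 without T1R1 served as control.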

[4] = target: T2, cat T1R1/T1R3 receptor; assay: cell-based; remark: listed apart in the source
Procedure: […] Activation of the T1R1/T1R3 receptor was detected by a change in intracellular calcium levels using a calcium sensitive fluorescent dye. Cells that express T1R3 but not T1R1 were used as a control. A FLIPR® Tetra or a FlexStation® 3 was used for data capture.
In each experiment, serial dilutions of up to 0.1 mM, 1 mM or 10 mM of the nucleotide derivative were added to the T1R1/T1R3-expressing cells.

[5] = target: T1, T1R1/T1R3 receptor; assay: Example 8: agonist screening of transmembrane compounds on T1R1/T1R3 in HEK293 cells; format: cell-based, cat; details: transmembrane compound alone
Procedure: (§1) HEK293 cells that stably express T1R3 and inducibly express T1R1 were exposed to a transmembrane compound. Activation of the T1R1/T1R3 receptor was detected by a change in intracellular calcium levels using a calcium sensitive fluorescent dye and/or a luminescent reporter system. […] A FLIPR® Tetra or a FlexStation® 3 was used for data capture.
Each transmembrane compound was tested at concentrations of 0.01 mM, 0.1 mM, and 1 mM. […] To generate the dose response curves, the transmembrane compound was tested at concentrations of between 0.0001 mM and 1.0 mM in the presence of GMP and Ala.
Target sequence in this assay (E3UMS2 entry or part of it, one chain of several): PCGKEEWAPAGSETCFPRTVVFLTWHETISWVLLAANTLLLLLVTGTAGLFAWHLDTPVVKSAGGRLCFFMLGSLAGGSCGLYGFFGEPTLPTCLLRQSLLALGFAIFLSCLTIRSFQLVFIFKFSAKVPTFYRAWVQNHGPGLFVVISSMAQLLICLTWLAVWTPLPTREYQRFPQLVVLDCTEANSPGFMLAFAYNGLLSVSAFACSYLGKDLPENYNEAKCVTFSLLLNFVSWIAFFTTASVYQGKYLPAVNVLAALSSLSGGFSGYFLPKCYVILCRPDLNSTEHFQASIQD

[6] = target: T1, T1R1/T1R3 receptor; assay: cell-based; format: cell-based
In short: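 HEK293 cells stably expressing T1R3 with inducible T1R1 received serial dilutions of compound (up to 10 mM), alone or with amino acids and/or nucleotides. Activation was read as an intracellular calcium change with a calcium-sensitive fluorescent dye. Cells expressing T1R3 without T1R1 served as control.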

[7] = target: T1, T1R1/T1R3 receptor; assay: Example 8: PAM screening of transmembrane compounds with GMP and Ala on T1R1/T1R3 in HEK293 cells; format: cell-based, cat; details: in the presence of GMP and Alanine
Description: as §1, with “to” for “to a”, “compound alone or in combination with Ala and GMP to activate the umami receptor.” for “compound.”
Target sequence in this assay (E3UMS2 entry or part of it, one chain of several): as above
Dose response curves were generated for each transmembrane compound at concentrations of 0 (buffer only), 0.01, 0.1 and 1 mM, wherein each of the three concentrations of transmembrane compound was tested in combination with 0.03 mM GMP+100 mM Ala (T1); 0.6 mM GMP+10 mM Ala (T2); 0.1 mM GMP+60 mM Ala (T3) and 0.3 mM GMP+60 mM Ala (T4). The T4 mixture was also tested in a 2-fold dilution series (the T4(×) Concentration). In these experiments, the first test concentration was 2× (2 times) the T4 concentration. The subsequent test concentrations were 2-fold dilutions from that (1×, 0.5×etc.). This dilution series was tested with or without the addition of the test compound at a constant 0.3 mM concentration.
Activation of the umami receptor was also determined in the presence of 1 mM GMP+100 mM Ala to generate a “maximum” umami receptor activation level.

[8] = T1R1/T1R3 EC50 +0.2 mM IMP, +0.2 mM IMP
[9] = alone in buffer, read-out: T1R1/T1R3 EC50 alone in buffer
[10] = EC50 (mM), +Alanine (20 mM) + IMP (0.2 mM), in the presence of 20 mM alanine and 0.2 mM IMP
[11] = EC50 (mM), +IMP (0.2 mM), in the presence of 0.2 mM IMP
[12] = T1R1/T1R3 EC50 +20 mM L-alanine + 0.2 mM IMP, +20 mM L-alanine + 0.2 mM IMP
[13] = compound alone in buffer, read-out: EC50 (mM), +buffer (alone)

## Nc1ccccc1C(=O)NCCc1ccccc1 [2-amino-N-phenethylbenzamide]
[1]
  EC50: 480 ± 10 µM
[1]; [8]
  EC50: 140 ± 30 µM
[1]; [9]
  EC50: 420 ± 10 µM
[2]
  Max resp % of IMP, +Alanine (20 mM): 93.4%
  Thres (mM), +Alanine (20 mM): 0.3 mM
  Thres (mM), +IMP (0.2 mM): 0.01 mM
[2]; [10]
  EC50: 0.09 mM
[2]; EC50 (mM), +Alanine (20 mM), in the presence of 20 mM alanine
  EC50: 0.48 mM
[2]; [11]
  EC50: 0.14 mM
[2]; [8]
  EC50: 0.14 ± 0.02 mM
[2]; [12]
  EC50: 0.09 ± 0.01 mM
[2]; T1R1/T1R3 EC50 +20 mM L-alanine, +20 mM L-alanine
  EC50: 0.48 ± 0.01 mM
[2]; [9]
  EC50: 0.42 ± 0.01 mM
[2]; [13]
  EC50: 0.42 mM
[2]; in the presence of 0.2 mM IMP
  Max resp % of Ala, +IMP (0.2 mM): 194.5%

## Nc1ncnc2c1ncn2[C@H]1C[C@H](OP(=O)(O)O)[C@@H](COP(=O)(O)O)O1 [2′-deoxyadenosine-3′, 5′-O-bisphosphate]
[3]
  Max resp. (ΔF/F): 0.8 ΔF/F
  Max. resp. % of IMP: 76.4 % of IMP
  Threshold: 0.005 mM
[4]; test compound alone (in buffer), read-out: EC50- alone
  EC50: 20 µM

## O=c1[nH]cnc2c1ncn2C1OC(COP(=O)(O)OP(=O)(O)O)C(O)C1O (stereo not shown) [Inosine 5′-disphosphate (IDP) sodium salt]
[4]
  EC50: 650 ± 70 µM

## O=C(NCCc1c[nH]c2ccccc12)c1cccnc1 [N-(2-(1H-indol-3-yl)ethyl)nicotinamide, N-(2-(1H-Indol-3-yl)ethyl)nicotinamide]
[1]; [8]
  EC50: 50 ± 10 µM
[1]; [9]
  EC50: 150 ± 30 µM
[2]
  Max resp % of IMP, +Alanine (20 mM): 166.4%
  Thres (mM), +Alanine (20 mM): 0.03 mM
  Thres (mM), +IMP (0.2 mM): 0.003 mM
[2]; [10]
  EC50: 0.04 mM
[2]; [11]
  EC50: 0.05 mM
[2]; [8]
  EC50: 0.05 ± 0.01 mM
[2]; [12]
  EC50: 0.04 ± 0.1 mM
[2]; [9]
  EC50: 0.15 ± 0.03 mM
[2]; [13]
  EC50: 0.15 mM
[2]; in the presence of 0.2 mM IMP
  Max resp % of Ala, +IMP (0.2 mM): 170.1%

## CCCC(CCC)NC(=O)c1ccc2c(c1)OCO2 [N-(heptan-4-yl)benzo[d][1,3]dioxole-5-carboxamide]
[5]
  agonist profile assessment (agonist activity): agonist
[6]; + Alanine, Table 17
  Max resp ΔF/F +Alanine: 1.7725 and 1.2
[6]; + IMP (0.2 mM), Table 17
  Max resp ΔF/F +IMP: 1.4725
[6]; +Alanine (20 mM), Table 18
  Max resp ΔF/F +Alanine: 1.2 and 1.7725
[6]; +Alanine (20 mM), Table 18, read-out: EC50 +Alanine
  EC50: 420 µM and 1100 µM
[6]; +IMP (0.2 mM), Table 18
  Max resp ΔF/F +IMP: 1.393 and 1.473
[6]; EC50 + IMP, + IMP (0.2 mM), Table 17
  EC50: 90 µM and 100 µM
[6]; EC50 +Alanine + IMP, +Alanine (20 mM) + IMP (0.2 mM), Table 18
  EC50: 30 µM and 100 µM
[6]; EC50 +IMP, +IMP (0.2 mM), Table 18
  EC50: 100 µM and 90 µM
[6]; EC50 - with Ala (20 mM) and IMP (0.2 mM), with 20 mM alanine and 0.2 mM IMP
  EC50: 30 ± 30 µM
[6]; EC50 - with Ala (20 mM), with 20 mM alanine
  EC50: 420 ± 60 µM
[6]; EC50 - with IMP (0.2 mM), with 0.2 mM IMP
  EC50: 90 ± 40 µM
[6]; alone in buffer, read-out: EC50 - alone
  EC50: 260 ± 90 µM
[6]; compound alone in buffer, Table 17, read-out: EC50 + buffer (alone)
  EC50: 700 µM and 260 µM
[6]; compound alone in buffer, Table 18, read-out: EC50 +buffer (alone)
  EC50: 260 µM and 700 µM
[6]; read-out: EC50 + Alanine
  EC50: 1100 µM and 420 µM
[7]
  PAM profile assessment (PAM activity): PAM activity
